This assay has as its system pentagastrin stimulated gastric acid secretion. The experiment in a line: Rat Lumen Perfused Stomach (pentagastrin stimulated gastric acid secretion). In kind it is in vivo. The note with it: i.v., 10 μmole/kg. The text has this: B. Rat Lumen Perfused Stomach (pentagastrin stimulated gastric acid secretion).
Using a modification of the procedure described by Ghosh & Schild (Br. J. Pharmacology, 13, 54, 1958), the compounds of the following examples were found on i.v. administration at a concentration of 10 μmole/kg to cause an inhibition of pentagastrin stimulated gastric acid secretion a follows: […]

Structures are written as SMILES.

The values below come from patent US5089498A, “Substituted 4-aminoquinoline derivatives as gastric acid secretion inhibitors” (SmithKline Beckman Intercredit B.V., priority 1988, dated 1992).

Regarding `CCCC(=O)c1cnc2c(C(=O)OC)cccc2c1Nc1ccccc1C` [Example 1, methyl 3-butyryl-4-(2-methylphenylamino)quinoline-8-carboxylate], the “% inhibition of pentagastrin stimulated gastric acid secretion” value was found to be 42%.

Regarding `CCCC(=O)c1cnc2c(C(N)=O)cccc2c1Nc1ccccc1C` [Example 2, 3-butyryl-4-(2-methylphenylamino)quinoline-8-carboxamide], the “% inhibition of pentagastrin stimulated gastric acid secretion” value turned out to be 39%.
